Reference: patent publication US9169477B2, “Compositions and methods for immunization against bacteria expressing a carbapenemase” (priority 2012, dated 2015)

B1: rNDM-1: Recombinant NDM-1 protein cloned from K. pneumoniae ATCC BAA-2146, injected with Al(OH)3 adjuvant for immunization (protein, UniProt C7C422 29-270, looked up)
Metallo-beta-lactamase type 2: GEIRPTIGQQMETGDQRFGDLVFRQLAPNVWQHTSYLDMPGFGAVASNGLIVRDGGRVLVVDTAWTDDQTAQILNWIKQEINLPVALAVVTHAHQDKMGGMDALHAAGIATYANALSNQLAPQEGMVAAQHSLTFAANGWVEPATAPNFGPLKVFYPGPGHTSDNITVGIDGTDIAFGGCLIKDSKAKSLGNLGDADTEHYAASARAFGAAFPKASMIVMSHSAPDSRAAITHTARMADKLR

What was measured:
[1] = system: KPC-expressing Klebsiella pneumoniae strain KPC-KP1; assay: Imipenem MIC of the test strain; type: cell-based
Description: (§1) To determine the in vitro effects of the antibody generated in response to rNDM1 and rKPC vaccination, bacteria were incubated overnight at 37° C. in 10% serum plus Mueller-Hinton broth, per CLSI standards. […] Thus, the immune serum was directly cidal for NDM-1 expressing K. pneumoniae.

[2] = system: NDM-1-expressing K. pneumoniae (ATCC BAA-2146); assay: Imipenem MIC of the test strain; type: cell-based; conditions: Klebsiella pneumoniae, ATCCBAA2146
Description: as §1

NDM-1 = molecular target: T1, NDM-1 (Klebsiella pneumoniae, UniProt C7C422); assay: IgG antibody titers in serum of mice vaccinated with rNDM-1; type: in vivo; conditions: subcutaneous with Al(OH)3 adjuvant, booster at three weeks, serum two weeks after booster, vs control mice
T1 construct: made in house
Description: A vaccination program targeting KPC- and NDM-1 was developed. The KPC gene was cloned from a pan-resistant (to all antibiotics, including colistin) clinical lung isolate of K. pneumoniae acquired at a local hospital (KPC-KP1) and the NDM-1 gene was cloned from a clinical K. pneumoniae isolate (ATCC BAA-2146). Recombinant KPC (rKPC) and recombinant NDM-1 (rNDM-1) proteins were expressed, purified, and used for immunization of mice. The immunization of the mice consisted of subcutaneously injecting either rKPC or rNDM-1 with Al(OH)3 adjuvant. A booster immunization for each mouse was administered at three weeks post initial immunization. Two weeks after the booster, serum from immune and control mice were harvested. […] Thus, high titers of immune polyclonal antibodies have been generated against KPC and NDM-1.

Molecule	MIC [1] [µg/mL]	MIC [2] [µg/mL]	anti-NDM-1 IgG titers (NDM-1; listed as NDM-1)	anti-NDM-1 IgG titers (NDM-1; listed as rNDM1)
C[C@@H](O)[C@H]1C(=O)N2C(C(=O)O)=C(SCCN=CN)C[C@H]12 [imipenem]	> 32	> 32		
B1			marked increase	high titers
